# Reference: patent US10689377B2 (Mirati Therapeutics, Inc., priority 2017, dated 2020)
# Assays:
# KRas G12C [1] = biological target: KRas G12C (Homo sapiens, UniProt P01116, C118S/C51S/C80L/G12C); assay: KRas G12C Modification Assay (LCMS detection of covalent adduct); assay type: binding; settings: normalized percent of control; 5 μM concentration for 3 hours
# Procedure, shortened: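 Intact protein analysed by LC/MS with deconvolution; unmodified protein signal normalized to no-compound control and reported as percent of control (POC).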
# KRas G12C [2] = biological target: KRas G12C (Homo sapiens, UniProt P01116, G12C); assay: Cellular inhibition of KRas G12C measured by Phospho-ERK in NCI-H358 cells; assay type: cell-based; settings: pERK(Thr202/Tyr204) normalized with GAPDH, NCI-H358 cells, 3 hours; read-out: IC50
# Procedure, shortened: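 Ratio of phospho-ERK(Thr202/Tyr204) to GAPDH, read by near-infrared secondary antibodies on fixed, permeabilised NCI-H358 cells, expressed relative to DMSO control. Compound exposure was 3 h at 0.5% DMSO. IC50 values come from 4-parameter curve fits.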
Compound,POC (KRas G12C [1]),IC50 (KRas G12C [2])
"C=C(F)C(=O)N1CCN(c2nc(OC[C@@H]3CCCN3C)nc3c2CCN(c2cccc4cccc(CO)c24)C3)C[C@@H]1CC#N [Example 567, 2-[(2S)-1-(2-Fluoroprop-2-enoyl)-4-[7-[8-(hydroxymethyl)-1-naphthyl]-2-[[(2S)-1-methylpyrrolidin-2-yl]methoxy]-6,8-dihydro-5H-pyrido[3,4-d]pyrimidin-4-yl]piperazin-2-yl]acetonitrile]",C (“C”>50% POC),> 1000 nM
"C=C(F)C(=O)N1CCN(c2nc(OC[C@@H]3CCCN3)nc3c2CCN(c2cccc4cccc(C)c24)C3)C[C@@H]1CC#N [Example 568, 2-[(2S)-1-(2-Fluoroprop-2-enoyl)-4-[7-(8-methyl-1-naphthyl)-2-[[(2S)-pyrrolidin-2-yl]methoxy]-6,8-dihydro-5H-pyrido[3,4-d]pyrimidin-4-yl]piperazin-2-yl]acetonitrile]",C (“C”>50% POC),0.1 to 1000 nM
"C=C(F)C(=O)N1CCN(c2nc(OC[C@@H]3CCCN3)nc3c2CCN(c2cccc4cccc(Cl)c24)C3)C[C@@H]1CC#N [Example 571, 2-((S)-4-(7-(8-Chloronaphthalen-1-yl)-2-((S)-pyrrolidin-2-ylmethoxy)-5,6,7,8-tetrahydropyrido[3,4-d]pyrimidin-4-yl)-1-(2-fluoroacryloyl)piperazin-2-yl)acetonitrile]",C (“C”>50% POC),0.1 to 1000 nM
"C=C(F)C(=O)N1CCN(c2nc(OC[C@@H]3CCC(=O)N3C)nc3c2CCN(c2cccc4cccc(Cl)c24)C3)C[C@@H]1CC#N [Example 572, 2-[(2S)-4-[7-(8-Chloro-1-naphthyl)-2-[[(2S)-1-methyl-5-oxo-pyrrolidin-2-yl]methoxy]-6,8-dihydro-5H-pyrido [3,4-d]pyrimidin-4-yl]-1-(2-fluoroprop-2-enoyl)piperazin-2-yl] acetonitrile]",C (“C”>50% POC),> 1000 nM
"C=C(F)C(=O)N1CCN(c2nc(OC[C@@H]3C[C@@H](F)CN3C)nc3c2CCN(c2cccc4cccc(Cl)c24)C3)C[C@@H]1CC#N [Example 574, 2-[(2S)-4-[7-(8-Chloro-1-naphthyl)-2-[[(2S,4R)-4-fluoro-1-methyl-pyrrolidin-2-yl]methoxy]-6,8-dihydro-5H-pyrido[3,4-d]pyrimidin-4-yl]-1-(2-fluoroprop-2-enoyl)piperazin-2-yl] acetonitrile]",C (“C”>50% POC),0.1 to 1000 nM
"C=C(F)C(=O)N1CCN(c2nc(OC[C@@H]3CCN(C)C3)nc3c2CCN(c2cccc4cccc(Cl)c24)C3)C[C@@H]1CC#N [Example 575, 2-[(2S)-4-[7-(8-Chloro-1-naphthyl)-2-[[(3R)-1-methylpyrrolidin-3-yl]methoxy]-6,8-dihydro-5H-pyrido[3,4-d]pyrimidin-4-yl]-1-(2-fluoroprop-2-enoyl)piperazin-2-yl]acetonitrile]",C (“C”>50% POC),0.1 to 1000 nM
"C=C(F)C(=O)N1CCN(c2nc(OC[C@H]3C[C@@H](OC)CN3C)nc3c2CCN(c2cccc4cccc(Cl)c24)C3)C[C@@H]1CC#N [Example 576, 2-[(2S)-4-[7-(8-Chloro-1-naphthyl)-2-[[(2R,4R)-4-methoxy-1-methyl-pyrrolidin-2-yl]methoxy]-6,8-dihydro-5H-pyrido[3,4-d]pyrimidin-4-yl]-1-(2-fluoroprop-2-enoyl)piperazin-2-yl]acetonitrile]",C (“C”>50% POC),0.1 to 1000 nM
"C=C(F)C(=O)N1CCN(c2nc(OC[C@@H]3C[C@@H](OC)CN3C)nc3c2CCN(c2cccc4cccc(Cl)c24)C3)C[C@@H]1CC#N [Example 577, 2-[(2S)-4-[7-(8-Chloro-1-naphthyl)-2-[[(2S,4R)-4-methoxy-1-methyl-pyrrolidin-2-yl]methoxy]-6,8-dihydro-5H-pyrido[3,4-d]pyrimidin-4-yl]-1-(2-fluoroprop-2-enoyl)piperazin-2-yl] acetonitrile]",C (“C”>50% POC),0.1 to 1000 nM
